From ChEMBL document CHEMBL1909046, “DrugMatrix in vitro pharmacology data”

What was measured:
[1] = molecular target: T1, C-X-C chemokine receptor type 1 (Homo sapiens, UniProt P25024); further: in other assays of this panel Not Active means under 50% inhibition at 10 µM
T1 sequence (P25024 whole entry): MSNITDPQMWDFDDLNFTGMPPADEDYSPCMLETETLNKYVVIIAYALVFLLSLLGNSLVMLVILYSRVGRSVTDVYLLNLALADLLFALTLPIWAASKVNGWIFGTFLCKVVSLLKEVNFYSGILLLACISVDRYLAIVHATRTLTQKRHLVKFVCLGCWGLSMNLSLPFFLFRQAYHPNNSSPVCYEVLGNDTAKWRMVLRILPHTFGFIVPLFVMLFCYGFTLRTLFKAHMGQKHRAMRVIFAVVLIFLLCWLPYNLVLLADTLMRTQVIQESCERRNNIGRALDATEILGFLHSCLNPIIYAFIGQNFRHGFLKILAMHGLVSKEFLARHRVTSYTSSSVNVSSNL

B2 bradykinin receptor = molecular target: T2, B2 bradykinin receptor (Homo sapiens, UniProt P30411); format: cell membranes, Membrane; details: chem-1; further: in other assays of this panel Not Active means under 50% inhibition at 10 µM
T2 sequence (P30411 whole entry): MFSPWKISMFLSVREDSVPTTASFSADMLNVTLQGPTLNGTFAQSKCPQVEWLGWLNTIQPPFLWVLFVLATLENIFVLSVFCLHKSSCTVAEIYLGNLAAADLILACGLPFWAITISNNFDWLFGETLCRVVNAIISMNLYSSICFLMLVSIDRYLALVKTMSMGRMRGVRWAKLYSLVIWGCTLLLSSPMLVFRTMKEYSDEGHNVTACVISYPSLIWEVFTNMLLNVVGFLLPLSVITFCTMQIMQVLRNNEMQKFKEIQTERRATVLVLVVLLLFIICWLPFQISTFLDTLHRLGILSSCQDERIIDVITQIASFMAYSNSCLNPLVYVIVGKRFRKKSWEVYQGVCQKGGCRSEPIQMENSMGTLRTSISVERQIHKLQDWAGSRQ

[2] = molecular target: Kappa-type opioid receptor (Homo sapiens, UniProt P41145); test: DRUGMATRIX: Opiate kappa (OP2, KOP) radioligand binding (ligand: [3H] Diprenorphine); format: cell membranes, HEK293, Membrane; details: hek293; Not Active = under 50% inhibition at 10 µM
Calcitonin receptor = molecular target: T3, Calcitonin receptor (Homo sapiens, UniProt P30988); format: cell membranes, Membrane; details: t47d; further: in other assays of this panel Not Active means under 50% inhibition at 10 µM
T3 sequence (P30988 whole entry): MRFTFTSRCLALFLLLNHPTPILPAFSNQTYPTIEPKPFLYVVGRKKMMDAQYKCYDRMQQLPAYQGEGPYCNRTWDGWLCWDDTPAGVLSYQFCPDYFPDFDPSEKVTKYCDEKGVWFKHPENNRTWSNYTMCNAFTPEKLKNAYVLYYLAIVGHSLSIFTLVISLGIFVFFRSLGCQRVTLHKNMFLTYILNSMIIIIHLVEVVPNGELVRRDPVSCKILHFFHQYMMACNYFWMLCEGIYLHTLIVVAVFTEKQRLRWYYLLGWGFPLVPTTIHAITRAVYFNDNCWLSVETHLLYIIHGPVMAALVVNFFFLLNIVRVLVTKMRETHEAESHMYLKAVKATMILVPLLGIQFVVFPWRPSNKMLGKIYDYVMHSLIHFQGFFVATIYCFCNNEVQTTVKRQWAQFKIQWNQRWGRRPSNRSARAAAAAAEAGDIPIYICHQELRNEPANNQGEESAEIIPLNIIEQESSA

[3] = DRUGMATRIX: Calcium Channel Type L, Phenylalkylamine radioligand binding (ligand: [3H] (-)-Desmethoxyverapamil (D-888)); format: cell membranes, Rattus norvegicus, Wistar, Brain, Membrane; details: Not Active = under 50% inhibition at 10 µM
[4] = DRUGMATRIX: GABAA, Muscimol, Central radioligand binding (ligand: [3H] Muscimol); format: cell membranes, Rattus norvegicus, Wistar, Brain, Membrane; details: Not Active = under 50% inhibition at 10 µM
Nitric oxide synthase 1 = Nitric oxide synthase 1 (Rattus norvegicus, UniProt P29476); format: tissue-based, Cerebellum; further: in other assays of this panel Not Active means under 50% inhibition at 10 µM
Cytochrome P450 1A2 = molecular target: T4, Cytochrome P450 1A2 (Homo sapiens, UniProt P05177); details: bti-tn-5b1-4; further: in other assays of this panel Not Active means under 50% inhibition at 10 µM
T4 sequence (P05177 whole entry): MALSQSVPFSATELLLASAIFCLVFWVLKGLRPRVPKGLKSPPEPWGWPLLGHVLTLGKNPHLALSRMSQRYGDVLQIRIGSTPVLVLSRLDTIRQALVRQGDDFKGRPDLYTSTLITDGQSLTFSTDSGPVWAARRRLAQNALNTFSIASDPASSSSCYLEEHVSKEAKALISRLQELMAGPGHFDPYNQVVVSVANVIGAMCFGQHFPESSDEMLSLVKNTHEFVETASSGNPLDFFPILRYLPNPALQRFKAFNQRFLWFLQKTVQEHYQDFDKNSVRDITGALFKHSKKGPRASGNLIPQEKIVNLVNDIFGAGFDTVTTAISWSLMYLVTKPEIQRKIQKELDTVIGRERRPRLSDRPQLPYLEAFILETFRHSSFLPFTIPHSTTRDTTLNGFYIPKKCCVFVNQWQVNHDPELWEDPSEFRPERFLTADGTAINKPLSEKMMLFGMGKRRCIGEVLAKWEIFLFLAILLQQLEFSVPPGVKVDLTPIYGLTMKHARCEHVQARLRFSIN

Sequence of Nitric oxide synthase 1 (P29476 whole entry): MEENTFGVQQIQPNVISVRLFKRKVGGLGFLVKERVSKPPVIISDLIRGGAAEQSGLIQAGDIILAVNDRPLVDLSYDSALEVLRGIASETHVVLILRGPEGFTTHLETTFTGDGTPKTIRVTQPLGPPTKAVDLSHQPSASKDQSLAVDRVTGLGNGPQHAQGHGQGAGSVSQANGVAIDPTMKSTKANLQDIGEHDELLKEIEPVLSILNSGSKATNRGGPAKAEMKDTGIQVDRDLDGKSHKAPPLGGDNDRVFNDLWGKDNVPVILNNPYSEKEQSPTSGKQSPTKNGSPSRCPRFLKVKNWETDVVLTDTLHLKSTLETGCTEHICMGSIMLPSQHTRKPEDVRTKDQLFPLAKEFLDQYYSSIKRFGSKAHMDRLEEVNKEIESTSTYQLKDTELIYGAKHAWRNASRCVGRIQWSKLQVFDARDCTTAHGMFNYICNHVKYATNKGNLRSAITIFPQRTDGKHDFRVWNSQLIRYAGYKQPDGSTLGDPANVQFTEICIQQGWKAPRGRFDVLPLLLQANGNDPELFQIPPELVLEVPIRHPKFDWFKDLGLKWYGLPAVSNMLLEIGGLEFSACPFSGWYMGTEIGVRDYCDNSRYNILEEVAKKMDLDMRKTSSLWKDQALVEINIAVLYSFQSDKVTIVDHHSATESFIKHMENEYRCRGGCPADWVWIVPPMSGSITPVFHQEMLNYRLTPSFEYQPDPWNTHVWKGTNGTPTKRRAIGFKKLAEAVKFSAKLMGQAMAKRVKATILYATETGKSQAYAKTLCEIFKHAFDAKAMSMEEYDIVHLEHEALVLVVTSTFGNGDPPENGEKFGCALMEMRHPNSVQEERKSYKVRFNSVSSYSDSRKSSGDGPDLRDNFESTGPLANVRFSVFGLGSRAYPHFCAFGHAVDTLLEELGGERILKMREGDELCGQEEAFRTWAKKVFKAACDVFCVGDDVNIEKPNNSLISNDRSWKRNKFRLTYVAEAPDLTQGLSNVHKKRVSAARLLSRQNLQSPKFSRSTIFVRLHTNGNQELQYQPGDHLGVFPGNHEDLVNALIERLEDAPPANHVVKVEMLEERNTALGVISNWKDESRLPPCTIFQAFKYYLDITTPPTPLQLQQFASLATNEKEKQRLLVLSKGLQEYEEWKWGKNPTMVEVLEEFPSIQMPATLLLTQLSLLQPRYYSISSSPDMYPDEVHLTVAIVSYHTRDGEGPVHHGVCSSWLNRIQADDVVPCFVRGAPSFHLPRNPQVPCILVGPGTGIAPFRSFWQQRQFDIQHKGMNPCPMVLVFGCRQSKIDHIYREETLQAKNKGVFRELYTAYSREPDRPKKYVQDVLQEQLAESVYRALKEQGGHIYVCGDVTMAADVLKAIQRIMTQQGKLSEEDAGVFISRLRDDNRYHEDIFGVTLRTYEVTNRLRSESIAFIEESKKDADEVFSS
Sequence of Kappa-type opioid receptor (P41145 whole entry): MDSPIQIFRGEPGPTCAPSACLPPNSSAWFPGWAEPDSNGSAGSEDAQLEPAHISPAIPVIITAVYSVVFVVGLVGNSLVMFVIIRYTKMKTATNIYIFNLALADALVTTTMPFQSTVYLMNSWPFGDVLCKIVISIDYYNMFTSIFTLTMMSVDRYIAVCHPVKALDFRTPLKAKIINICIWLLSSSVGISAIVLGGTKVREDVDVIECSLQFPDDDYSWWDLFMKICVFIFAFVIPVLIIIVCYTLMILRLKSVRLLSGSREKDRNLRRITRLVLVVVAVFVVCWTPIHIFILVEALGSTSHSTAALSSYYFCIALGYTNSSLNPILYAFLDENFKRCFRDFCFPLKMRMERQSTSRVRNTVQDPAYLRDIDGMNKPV

N[C@@H](Cc1ccc(F)cc1)C(=O)O
Not Active: IC50 [1] | IC50 (B2 bradykinin receptor) | IC50 [2] | IC50 (Calcitonin receptor) | IC50 [3] | Ki [3] | IC50 [4] | Ki [4] | IC50 (Nitric oxide synthase 1)

Clc1cc2c(cc1Cl)Oc1cc(Cl)c(Cl)cc1O2 [2,3,7,8-TETRACHLORODIBENZO-P-DIOXIN]
Not Active: IC50 [1] | IC50 (B2 bradykinin receptor) | IC50 (Calcitonin receptor) | IC50 [3] | Ki [3] | IC50 [4] | Ki [4] | IC50 (Cytochrome P450 1A2) | Ki (Cytochrome P450 1A2) | IC50 (Nitric oxide synthase 1)

C[C@@H]1CC[C@H]2[C@@H](C)C(=O)O[C@@H]3O[C@@]4(C)CC[C@@H]1[C@]32OO4 [ARTEMISININ]
Not Active: IC50 [1] | IC50 (B2 bradykinin receptor) | IC50 [2] | IC50 (Calcitonin receptor) | IC50 [3] | Ki [3] | IC50 [4] | Ki [4] | IC50 (Nitric oxide synthase 1)

CC(C)C[C@H]1C(=O)N2CCC[C@H]2[C@]2(O)O[C@](NC(=O)[C@@H]3C=C4c5cccc6[nH]c(Br)c(c56)C[C@H]4N(C)C3)(C(C)C)C(=O)N12 [BROMOCRIPTINE]
Not Active: IC50 [1] | IC50 (B2 bradykinin receptor) | IC50 (Calcitonin receptor) | IC50 [3] | Ki [3] | IC50 [4] | Ki [4] | IC50 (Cytochrome P450 1A2) | Ki (Cytochrome P450 1A2) | IC50 (Nitric oxide synthase 1)

COc1cc(CNC(=O)CCCC/C=C/C(C)C)ccc1O [CAPSAICIN]
Not Active: IC50 [1] | IC50 (B2 bradykinin receptor) | IC50 [2] | IC50 (Calcitonin receptor) | IC50 [3] | Ki [3] | IC50 [4] | Ki [4] | IC50 (Nitric oxide synthase 1)

CCC[C@@H]1C[C@@H](C(=O)N[C@@H]([C@H]2O[C@H](SC)[C@H](O)[C@@H](O)[C@H]2O)[C@H](C)Cl)N(C)C1 [CLINDAMYCIN]
Not Active: IC50 [1] | IC50 (B2 bradykinin receptor) | IC50 [2] | IC50 (Calcitonin receptor) | IC50 [3] | Ki [3] | IC50 [4] | Ki [4] | IC50 (Nitric oxide synthase 1)

Nc1nc(N)nc(NC2CC2)n1 [CYROMAZINE]
Not Active: IC50 [1] | IC50 (B2 bradykinin receptor) | IC50 (Calcitonin receptor) | IC50 [3] | Ki [3] | IC50 [4] | Ki [4] | IC50 (Cytochrome P450 1A2) | Ki (Cytochrome P450 1A2) | IC50 (Nitric oxide synthase 1)

CN1C(=O)CN=C(c2ccccc2)c2cc(Cl)ccc21 [DIAZEPAM]
Not Active: IC50 [1] | IC50 (B2 bradykinin receptor) | IC50 [2] | IC50 (Calcitonin receptor) | IC50 [3] | Ki [3] | IC50 [4] | Ki [4] | IC50 (Nitric oxide synthase 1)

CN1C[C@H](C(=O)N[C@]2(C)O[C@@]3(O)[C@@H]4CCCN4C(=O)[C@H](Cc4ccccc4)N3C2=O)C[C@@H]2c3cccc4[nH]cc(c34)C[C@H]21 [DIHYDROERGOTAMINE]
Not Active: IC50 [1] | IC50 (B2 bradykinin receptor) | IC50 (Calcitonin receptor) | IC50 [4] | Ki [4] | IC50 (Cytochrome P450 1A2) | Ki (Cytochrome P450 1A2) | IC50 (Nitric oxide synthase 1)

CCOC(=O)C1=C(C)NC(C)=C(C(=O)OC)C1c1cccc(Cl)c1Cl (configuration not stated) [FELODIPINE]
Not Active: IC50 [1] | IC50 (B2 bradykinin receptor) | IC50 [2] | IC50 (Calcitonin receptor) | IC50 [3] | Ki [3] | IC50 [4] | Ki [4] | IC50 (Nitric oxide synthase 1)

Cc1cn[nH]c1 [FOMEPIZOLE]
Not Active: IC50 [1] | IC50 (B2 bradykinin receptor) | IC50 [2] | IC50 (Calcitonin receptor) | IC50 [3] | Ki [3] | IC50 [4] | Ki [4] | IC50 (Nitric oxide synthase 1)

Cc1cnc(C(=O)NCCc2ccc(S(=O)(=O)NC(=O)NC3CCCCC3)cc2)cn1 [GLIPIZIDE]
Not Active: IC50 [1] | IC50 (B2 bradykinin receptor) | IC50 [2] | IC50 (Calcitonin receptor) | IC50 [3] | Ki [3] | IC50 [4] | Ki [4] | IC50 (Nitric oxide synthase 1)

COc1ccccc1OCC(O)CO (configuration not stated) [GUAIFENESIN]
Not Active: IC50 [1] | IC50 (B2 bradykinin receptor) | IC50 [2] | IC50 (Calcitonin receptor) | IC50 [3] | Ki [3] | IC50 [4] | Ki [4] | IC50 (Nitric oxide synthase 1)

C/C=C\c1ccc(O)c(OC)c1 [ISOEUGENOL]
Not Active: IC50 [1] | IC50 (B2 bradykinin receptor) | IC50 [2] | IC50 (Calcitonin receptor) | IC50 [3] | Ki [3] | IC50 [4] | Ki [4] | IC50 (Nitric oxide synthase 1)

NC[C@H]1O[C@H](O[C@H]2[C@H](O)[C@@H](O[C@H]3O[C@H](CO)[C@@H](O)[C@H](N)[C@H]3O)[C@H](N)C[C@@H]2N)[C@H](O)[C@@H](O)[C@@H]1O [KANAMYCIN]
Not Active: IC50 [1] | IC50 (B2 bradykinin receptor) | IC50 [2] | IC50 (Calcitonin receptor) | IC50 [3] | Ki [3] | IC50 [4] | Ki [4] | IC50 (Nitric oxide synthase 1)

COc1ccc2cc(CCC(C)=O)ccc2c1 [NABUMETONE]
Not Active: IC50 [1] | IC50 (B2 bradykinin receptor) | IC50 [2] | IC50 (Calcitonin receptor) | IC50 [3] | Ki [3] | IC50 [4] | Ki [4] | IC50 (Nitric oxide synthase 1)

COc1ccc(Cc2nccc3cc(OC)c(OC)cc23)cc1OC [PAPAVERINE]
Not Active: IC50 [1] | IC50 (B2 bradykinin receptor) | IC50 (Calcitonin receptor) | IC50 [3] | Ki [3] | IC50 [4] | Ki [4] | IC50 (Cytochrome P450 1A2) | Ki (Cytochrome P450 1A2) | IC50 (Nitric oxide synthase 1)

OCCN1CCN(CCCN2c3ccccc3Sc3ccc(Cl)cc32)CC1 [PERPHENAZINE]
Not Active: IC50 [1] | IC50 (B2 bradykinin receptor) | IC50 [2] | IC50 (Calcitonin receptor) | IC50 [3] | Ki [3] | IC50 [4] | Ki [4] | IC50 (Nitric oxide synthase 1)

COBALT(II) ACETYLACETONATE
Not Active: IC50 [1] | Ki [1] | IC50 (B2 bradykinin receptor) | Ki (B2 bradykinin receptor) | IC50 (Calcitonin receptor) | Ki (Calcitonin receptor) | IC50 [3] | Ki [3] | IC50 [4] | Ki [4] | IC50 (Cytochrome P450 1A2) | Ki (Cytochrome P450 1A2) | IC50 (Nitric oxide synthase 1) | Ki (Nitric oxide synthase 1)

INSULIN HUMAN
Not Active: IC50 [1] | Ki [1] | IC50 (B2 bradykinin receptor) | Ki (B2 bradykinin receptor) | IC50 (Calcitonin receptor) | Ki (Calcitonin receptor) | IC50 [3] | Ki [3] | IC50 [4] | Ki [4] | IC50 (Cytochrome P450 1A2) | Ki (Cytochrome P450 1A2) | IC50 (Nitric oxide synthase 1) | Ki (Nitric oxide synthase 1)

POLYVINYL ALCOHOL
Not Active: IC50 [1] | Ki [1] | IC50 (B2 bradykinin receptor) | Ki (B2 bradykinin receptor) | IC50 (Calcitonin receptor) | Ki (Calcitonin receptor) | IC50 [3] | Ki [3] | IC50 [4] | Ki [4] | IC50 (Cytochrome P450 1A2) | Ki (Cytochrome P450 1A2) | IC50 (Nitric oxide synthase 1) | Ki (Nitric oxide synthase 1)
